The values that follow come from patent US12606797B2, “Methods of detection of mechanically-activated platelet activation and uses thereof” (Arizona Board of Regents on Behalf of the University of …, priority 2018, dated 2026).

Assay [1] concerns human platelets (GFP, PRP). Nature of the assay: Platelet aggregation induced with biochemical agonists (optical aggregometer). It counts as cell-based. The note with it: 1 mM CaCl2, 5 min, 37° C.; for ability to induce platelet aggregation in GFP: gel-filtered platelets, 32 μM TRAP6, 1 U/mL thrombin, 100 μg/mL collagen, 1 mM arachidonic acid. On the procedure:
Platelet aggregation was assessed in PRP or GFP samples employing dual channel optical aggregometer (Model 560-VS, Chrono-Log Corporation, Havertown, PA). […] Platelet count in aggregation mixture was adjusted to 150-200×10^3 plt/μL (in GFP) and to 300-350×10^3 plt/μL (in PRP), final CaCl2 concentration was 1 mM. Aggregation was started by adding mentioned agonists and running for 5 minutes at 37° C. with 1000 rpm stirring. The changes in relative light transmittance were recorded, and arbitrary values for each aggregation curve were calculated with Aggrolink software (Chrono-Log Corporation, Havertown, PA).
(§1) To define the molecular signature of SMPA, biochemical versus mechanical platelet activation by uniform shear stress applied in the hemodynamic shearing device (HSD) was compared. […] Mechanical platelet activation was obtained via GFP exposure to uniform continuous shear in HSD as described above in “Shear-mediated platelet activation”. Physiologically relevant shear stress levels (30 and 50 dynes/cm^2) close to those found in blood stream vs. sub-pathological shear conditions (70 dynes/cm^2) existing within MCS were examined. Initially, the P-selectin exposure, as a known marker of platelet activation and α-granule secretion, was detected employing mono immunostaining and quantified by flow cytometry. Those cells showing high fluorescence intensity (≥3000 AU) were gated as P-selectin positive platelets and marked as sub-population P6 (FIGS. 2A-2G).

Assay [2] deals with P-selectin exposure on gel-filtered platelets. Description: Flow cytometry of platelet P-selectin exposure (anti-CD62P-APC) after biochemical activation. It is filed as cell-based, human. Conditions: 2.5 mM CaCl2, room temperature; for P-selectin exposure (in words): GFP, 32 μM TRAP6, 1 U/mL thrombin, 100 μg/mL collagen; for number of CD62P-positive cells, % of whole platelet population: GFP 2×10^4 platelets/μL, 10 uM ADP, 10 μg/mL epinephrine, 1 mM arachidonic acid, gate ≥3000 AU. On the procedure:
(§2) To induce biochemical activation, GFP (2×10^4 platelets/μL, final volume 100 μL) were treated with biochemical agonists mentioned above in presence of 2.5 mM CaCl2), mixed gently and incubated undisturbed for 15 minutes at room temperature. Then APC-conjugated anti-CD62P (clone Psel.KO2.3, eBioscience, San Diego, CA) and FITC-labeled annexin V (eBioscience, San Diego, CA) were added to indicate platelet a-granule secretion and phosphatidylserine externalization (PSE) during platelet biochemical activation. Integrin GP αIIbβ3 activation was evaluated by double-staining technique. […] A pair of antibodies against αIIbβ3 was added simultaneously into a test tube containing activated platelet sample to identify the number of platelets exposing activated αIIbβ3 among all αIIbβ3-expressing platelet population. Cells were incubated with annexin V or antibodies for 30 minutes at room temperature in the dark, washed by centrifugation (5000 rpm, 5 min), resuspended in 1 ml of Ca-free 0.05 M phosphate buffer (pH-7.4) and transferred in polystyrene tube for flow cytometry. Flow cytometry analysis was performed within 15 minutes after sample preparation.
(§3) Flow cytometry was performed on FACS Canto II (BD Biosciences, San Jose, CA) using the following configurations: HeNe red laser (633 nm) and 660/20 filter—for APC, solid state blue laser (488 nm) and 530/30 filter—for FITC-stained cell detection. Single platelets were distinguished from their aggregates and microparticles based on their characteristic forward versus side scatter. […] BD FACSDiva™ software was applied to analyze flow cytometry data statistics (percentage of marker-positive platelets among whole platelet population and their median fluorescence intensity).
as §1
(In general: In flow cytometry, cells or beads pass a laser one at a time.)

For assay [3], the system named is integrin GPIIb/IIIa activation on gel-filtered platelets. Nature of the assay: Flow cytometry of integrin GPIIb/IIIa activation (anti-CD41/CD61-FITC PAC-1 and anti-CD41-APC double staining). It counts as cell-based, human. The note with it: for number of CD41/CD61-positive platelets following GFP stimulation (in words): 2.5 mM CaCl2, vs intact platelets; for number of platelets presenting activated GPIIb/IIIa (CD41/CD61-positive among CD41-positive) / elevation of number of platelets presenting activated GPIIb/IIIa as compared with intact platelets: GFP, 10 uM ADP, 1 U/mL thrombin; for number of platelets presenting activated GPIIb/IIIa (CD41/CD61-positive among CD41-positive): 2.5 mM CaCl2, gate ≥4000 AU, intact platelets 6.7±2.9%. On the procedure:
as §2, §3
To assess the magnitude of integrin GPIIb/IIIa activation after platelet stimulation with constant shear or biochemical agonists, the number of whole GPIIb/IIIa-positive platelet population was compared with the number of those presenting activated form of the integrin on their membrane. For this purpose, double staining with APC-conjugated anti-CD41 and FITC-conjugated anti-CD41/CD61 was applied as describe in the methods described above. Among parental CD41-positive platelet population, CD41/CD61-positive cells were distinguished based on their FITC-fluorescence intensity level (≥4000 AU) and assumed as presenting activated form of integrin GPIIb/IIIa on their surface (FIGS. 4A-4G, sub-population P3).

For assay [4], the system named is phosphatidylserine externalization on gel-filtered platelets. Nature of the assay: Annexin V binding assay of phosphatidylserine externalization (flow cytometry). Conditions: GFP, 2.5 mM CaCl2; for annexin V binding after platelet stimulation (in words): agonist taken alone. It counts as cell-based, human. On the procedure:
as §2, §3
To detect phosphatidylserine exposure, an annexin V binding assay is extensively utilized. The principle of the assay is based on the high affinity binding of protein annexin V labeled with fluorescence dye to phosphatidylserine on platelet surface with the aid of Ca2+ ions (Demchenko, Cytotechnology, vol. 65, no. 2, pp. 157-72, March (2013)).

Assay [5] concerns procoagulant activity of gel-filtered platelets. Nature of the assay: Prothrombinase-based Platelet Activation State (PAS) assay, thrombin generation on platelet surface. It counts as cell-based, human. Conditions: platelets 5×10^3 cells/μL, 200 nM acetylated prothrombin, 100 pM factor Xa, 37° C., 10 minutes. The text has this: PAS was quantified by chemically modified prothrombinase-based chromogenic assay developed by Jesty and Bluestein (Jesty & Bluestein, Anal. Biochem. (1999), Jesty et al., Platelets, vol. 14, no. 3, pp. 143-149, 2003). The assay measures the rate of acetylated thrombin generation from acetylated proenzyme cleavage by factor Xa in presence of activated platelets. […] Activated, but not resting, platelets present factor Va and negatively charged phospholipids (mostly phosphatidylserine) on their surface for prothrombinase complex formation and thrombin generation. Thus, the rate of enzymatic cleavage of chromogenic substrate Chromozym TH (Tosyl-Gly-Pro-Arg-4-nitranilide acetate, Roche Diagnostics GmbH, Mannheim, Germany) by acetylated thrombin reflects the value of initial activation state of the platelets tested (Jesty & Bluestein, Anal. Biochem. (1999), Rubenstein et al., Circulation, (2004)).
Platelet samples preliminary stimulated with biochemical activators, shear or sonication (platelet count—5×10^3 cells/μL) were incubated with 200 nM acetylated prothrombin, 100 pM factor Xa (Enzyme Research Laboratories, South Bend, IN), 5 mM CaCl2) in a volume of 100 μL 20 mM HEPES, pH 7.4, containing 130 mM NaCl and 0.1% BSA at 37° C. for 10 minutes. Then, 10 μL of each timed sample was measured for thrombin activity in microplate wells, containing 0.3 mM Cromozyme TH, 3 mM EDTA in 20 mM HEPES, pH 7.4, containing 130 mM NaCl and 0.1% BSA. Kinetic change of absorbance (λ=405 nm) was measured for 7 minutes at room temperature using microplate reader Versa MAX (Molecular Devices Corp., Sunnyvale, CA). The value of PAS or initial rate of thrombin generation was calculated as a slope of kinetic curve (ΔA405/min) with SoftMax Pro6 Software.

Assay [6] has as its system human platelets. Conditions: not sensitive to cyclooxygenase inhibitors; cited from earlier work.

Consider collagen, for which the “ability to induce platelet aggregation in GFP” value (shortened to “ability … in GFP”) in assay [1] is given as “induce platelet aggregation”. For the same compound, the “P-selectin exposure (in words)” value in assay [2] is recorded as “failed to induce high P-selectin exposure”. The “number of CD41/CD61-positive platelets following GFP stimulation (in words)” value (from here on “number … (in words)”) in assay [3] is reported as “not significantly elevated”. The “annexin V binding after platelet stimulation (in words)” value (shortened to “annexin V binding”) in assay [4] is recorded as “No annexin V binding”. In assay [5], the “thrombin generation / amidolytic activity in presence of stimulated platelets (PAS assay, in words)” value is “no amidolytic activity was detected”.
Turning to `CNC[C@H](O)c1ccc(O)c(O)c1` [epinephrine], in assay [2], the “number of CD62P-positive cells, % of whole platelet population” value was 18.6±1.5%. Besides, the “number … (in words)” value in assay [3] is recorded as “not significantly elevated”. Further, in assay [4], the “annexin V binding” value is “No annexin V binding”. For the same compound, the “thrombin generation / amidolytic activity in presence of stimulated platelets (PAS assay, in words)” value in assay [5] is “no amidolytic activity was detected”.
On to thrombin, for which the “ability … in GFP” value in assay [1] was “induce platelet aggregation”. For the same compound, the “P-selectin exposure (in words)” value in assay [2] is on record as “dramatic augmentation of P-selectin exposure”. In addition, in assay [3], the “number of platelets presenting activated GPIIb/IIIa (CD41/CD61-positive among CD41-positive)” value worked out at 63.5±10.2% and the “elevation of number of platelets presenting activated GPIIb/IIIa as compared with intact platelets” value came to 9.6 times. Besides, in assay [4], the “annexin V binding” value is “No annexin V binding”.
On to `CCCCC/C=C\C/C=C\C/C=C\C/C=C\CCCC(=O)O` [arachidonic acid], for which the “ability … in GFP” value in assay [1] is given as “induce platelet aggregation”. Besides, the “number of CD62P-positive cells, % of whole platelet population” value in assay [2] was found to be 52.1±6.8%. The “number … (in words)” value in assay [3] is on record as “not significantly elevated”. In addition, the “number of annexin V-positive platelets, % of whole platelet population” value in assay [4] (arachidonic acid 1 mM) came to 52.12±6.79%. Also, the “thrombin generation / amidolytic activity in presence of stimulated platelets (PAS assay, in words)” value in assay [5] is reported as “comparable with sonicated GFP sample”. In addition, in assay [6], the “AA concentration required for Ca^2+ influx” value was 60 µM.
For the compound `Nc1ncnc2c1ncn2[C@@H]1O[C@H](COP(=O)(O)OP(=O)(O)O)[C@@H](O)[C@H]1O` [ADP, Adenosine DiPhosphate], in assay [1] (platelet-rich plasma, 10 uM ADP, 10 μg/mL epinephrine), the “ability to induce platelet aggregation in PRP” value is “induce platelet aggregation”. For the same compound, in assay [2], the “number of CD62P-positive cells, % of whole platelet population” value came to 46.8±3.9%. In assay [3], the “number of platelets presenting activated GPIIb/IIIa (CD41/CD61-positive among CD41-positive)” value is 28.0±8.9% and the “elevation of number of platelets presenting activated GPIIb/IIIa as compared with intact platelets” value came out at 4.2 times. Also, the “annexin V binding” value in assay [4] was “No annexin V binding”. Further, the “thrombin generation / amidolytic activity in presence of stimulated platelets (PAS assay, in words)” value in assay [5] was “no amidolytic activity was detected”.
As to “thrombin receptor activating peptide-6 [TRAP-6]”, the “ability … in GFP” value in assay [1] is “induce platelet aggregation”. For the same compound, the “P-selectin exposure (in words)” value in assay [2] is listed as “dramatic augmentation of P-selectin exposure”. Further, the “number … (in words)” value in assay [3] is reported as “not significantly elevated”. The “annexin V binding” value in assay [4] is “No annexin V binding”. Further, the “thrombin generation / amidolytic activity in presence of stimulated platelets (PAS assay, in words)” value in assay [5] is given as “no amidolytic activity was detected”.
